The source made the active and inactive calls. No cut-off for these calls is given here.
Assays:
[1] = tested on: Rattus norvegicus; experiment: Reduction in 24 hrs food intake in 24 hrs food-deprived Sprague-Dawley rat at 6.75 to 54 mg/kg, ip followed by standard chow pellets feeding and measured for 6.5 hrs post dose; assay type: functional, organism-based
[2] = tested on: Rattus norvegicus; experiment: Reduction in body weight gain in non-food-deprived Sprague-Dawley rat at 6.75 to 54 mg/kg, ip dosed 30 mins before beginning of dark cycle followed by exposure to standard chow pellets and measured 15.5 hrs post dose; assay type: functional, organism-based
[3] = tested on: Rattus norvegicus; experiment: Reduction in water intake in 24 hrs food-deprived Sprague-Dawley rat assessed reduction in water intake level at 100 nmol, icv relative to control; assay type: functional
[4] = tested on: Rattus norvegicus; experiment: Reduction in food intake in 24 hrs food-deprived Sprague-Dawley rat assessed as food intake level at 54 mg/kg, po followed by standard chow pellets feeding and measured 8 hrs post dose (reference value: 14g); assay type: functional
[5] = tested on: Rattus norvegicus; experiment: Reduction in water intake in non-food-deprived Sprague-Dawley rat at 6.75 to 54 mg/kg, ip dosed 30 mins before beginning of dark cycle followed by exposure to standard chow pellets and measured 15.5 hrs post dose; assay type: functional, organism-based
[6] = tested on: Rattus norvegicus; experiment: Effect on motor function in ip dosed Sprague-Dawley rat assessed as effect on locomotor activity after 16 hrs post dose; assay type: ADME, organism-based; conditions: in vivo
[7] = tested on: Rattus norvegicus; experiment: Reduction in body weight gain in non-food-deprived Sprague-Dawley rat at 13.5 mg/kg, ip qd for 22 days measured between day-31 and day-60 post dose; assay type: functional, organism-based
[8] = tested on: Rattus norvegicus; experiment: Reduction in water intake in 24 hrs food-deprived Sprague-Dawley rat at 6.75 to 54 mg/kg, ip followed by standard chow pellets feeding and measured for 6.5 hrs post dose; assay type: functional, organism-based
[9] = tested on: Rattus norvegicus; experiment: Reduction in body weight gain in non-food-deprived Sprague-Dawley rat at 13.5 mg/kg, ip qd for 22 days measured between day-4 and day-31 post dose; assay type: functional, organism-based
[10] = tested on: Rattus norvegicus; experiment: Reduction in food intake in 24 hrs food-deprived Sprague-Dawley rat at 25 to 100 nmol, icv measured 2.5 hrs post dose relative to control; assay type: functional
[11] = tested on: Rattus norvegicus; experiment: Induction of sedation in ip dosed Sprague-Dawley rat assessed as relaxed behavior after 16 hrs post dose; assay type: organism-based; conditions: in vivo
[12] = tested on: Rattus norvegicus; experiment: Induction of sedation in non-food-deprived Sprague-Dawley rat subjected to pre-pulse of 12 db followed by 120 db pulse assessed as animal jump height level at 6.75 mg/kg, po dosed […] before test; assay type: organism-based; conditions: in vivo
[13] = tested on: Rattus norvegicus; experiment: Induction of sedation in non-food-deprived Sprague-Dawley rat subjected to pre-pulse of 12 db followed by 120 db pulse assessed as animal jump height level at 13.5 and 54 mg/kg, po dosed […] before test; assay type: organism-based; conditions: in vivo
[14] = tested on: Rattus norvegicus; experiment: Reduction in body weight gain in 24 hrs food-deprived Sprague-Dawley rat at 6.75 to 54 mg/kg, ip followed by standard chow pellets feeding and measured for 6.5 hrs post dose; assay type: functional, organism-based
[15] = tested on: Rattus norvegicus; experiment: Reduction in body weight gain in non-food-deprived Sprague-Dawley rat at 13.5 mg/kg, ip qd for 22 days measured on day-1 and day-3 post dose; assay type: functional, organism-based
[16] = tested on: Rattus norvegicus; experiment: Induction of sedation in ip dosed Sprague-Dawley rat assessed as absence of anxiety-like behavior after 16 hrs post dose; assay type: organism-based; conditions: in vivo
[17] = tested on: Rattus norvegicus; experiment: Reduction in body weight gain in 24 hrs food-deprived Sprague-Dawley rat at 27 and 54 mg/kg, ip followed by standard chow pellets feeding and measured for 6.5 hrs post dose; assay type: functional, organism-based
[18] = tested on: Rattus norvegicus; experiment: Effect on motor function in ip dosed Sprague-Dawley rat assessed as effect on locomotor activity after 1.5 hrs post dose; assay type: ADME, organism-based; conditions: in vivo
[19] = target: G-protein coupled receptor 6 (Homo sapiens) (UniProt P46095); experiment: Activity at rat G-protein GSalpha fused GPR6 (unknown origin) expressed in HEK293 cell membranes assessed as effect on [35S]GTPgammaS binding pre-incubated for 5 to 10 mins followed by 60 mins incubation in presence of [35S]GTPgammaS by scintillation proximity assay; assay type: functional
Chain of G-protein coupled receptor 6 (Homo sapiens) (P46095 whole entry, the tested form may be a part): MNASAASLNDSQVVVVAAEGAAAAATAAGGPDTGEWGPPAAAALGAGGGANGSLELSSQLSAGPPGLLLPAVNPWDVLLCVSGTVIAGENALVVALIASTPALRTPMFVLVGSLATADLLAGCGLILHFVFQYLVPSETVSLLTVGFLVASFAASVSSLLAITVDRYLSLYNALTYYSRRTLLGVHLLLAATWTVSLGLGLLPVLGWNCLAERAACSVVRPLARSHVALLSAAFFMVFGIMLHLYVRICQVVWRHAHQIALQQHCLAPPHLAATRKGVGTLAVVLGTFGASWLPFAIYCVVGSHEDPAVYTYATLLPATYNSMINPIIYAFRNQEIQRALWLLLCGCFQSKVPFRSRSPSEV

**Q.** How did the Activity [1] turn out when `O=C(/N=C1\SSC2=NCCN21)c1cccs1` was run?
**A.** Active

**Q.** And the Activity [2]?
**A.** Active

**Q.** And the “inhibition (INH)” value [3]?
**A.** <=50%

**Q.** What about the Activity [4] of the same compound?
**A.** 16 g

**Q.** And the Activity [5]?
**A.** Active

**Q.** And the Activity [6]?
**A.** Toxic

**Q.** What about the Activity [7] of the same compound?
**A.** Active

**Q.** And the Activity [8]?
**A.** Active

**Q.** What about the Activity [9] of the same compound?
**A.** Active

**Q.** What about the “fold change (FC)” value [10] of the same compound?
**A.** <=6

**Q.** What about the Activity [11] of the same compound?
**A.** Toxic

**Q.** What about the Activity [12] of the same compound?
**A.** Non-toxic

**Q.** And the Activity [13]?
**A.** Toxic

**Q.** And the Activity [14]?
**A.** Active

**Q.** What about the Activity [15] of the same compound?
**A.** Active

**Q.** And the Activity [16]?
**A.** Toxic

**Q.** What about the Activity [17] of the same compound?
**A.** Active

**Q.** What about the Activity [18] of the same compound?
**A.** Non-toxic

**Q.** And the Activity [19]?
**A.** Active

From ChEMBL document CHEMBL3714737, “Small molecule modulators of G protein-coupled receptor six” (2002)
